Reference: patent US20260216123A1, “PHARMACEUTICAL COMPOSITION FOR PREVENTING OR TREATING DEGENERATIVE OSTEOARTHRITIS” (GLACEUM INC., priority 2023, published 2026)

Columns and labels:
Assay type in all cases: in vivo
[1] = test system: MCP-1; experiment: Immunohistochemical analysis of knee joint tissue in MIA-OA animal model: MCP-1; settings: MIA-OA rat; immunohistochemistry; FIG. 6
Experimental: (§1) All animals were allowed to acclimatize for one week after introduction to the laboratory environment. On the day of the start of the experiment, monosodium iodoacetate (MIA, Sigma, Cat. No. 12512) was dissolved in saline for injection at a concentration of 30 mg/mL, and 50 μL of the solution was administered once on the day of the start of the experiment. The animals were divided into groups as follows. The animals were randomly distributed so that the average of each group was distributed as evenly as possible according to the pain threshold evaluation values ranked, so as to obtain the number specified in the “Constitution of Test Groups” table. Individual identification was done by writing numbers directly on the tails of the animals. Individual identification cards of different colors were attached to the housing boxes according to each dose. An animal room usage record sheet containing the test number, animal room usage period, principal investigator name, subinvestigator name, emergency contact information, etc. was attached to the animal room entrance. […]
(§2) The histopathological analysis of knee joint tissue was performed using the same model as that in Experimental Example 1. […] Then, the Dab-positive area expressing each cytokine in the synovium was extracted using ImageJ software (Wayne Rasband, NIH, USA) and expressed as a percentage relative to the total nuclear area.

[2] = test system: knee joint tissue of MIA-OA rat model; experiment: Histopathological analysis of knee joint tissue (Safranin O staining, OARSI and Mankin scores) in MIA-OA animal model
Experimental: All animals were allowed to acclimatize for one week after introduction to the laboratory environment. On the day of the start of the experiment, monosodium iodoacetate (MIA, Sigma, Cat. No. 12512) was dissolved in saline for injection at a concentration of 30 mg/mL, and 50 μL of the solution was administered once on the day of the start of the experiment. The animals were divided into groups as follows. The animals were randomly distributed so that the average of each group was distributed as evenly as possible according to the pain threshold evaluation values ranked, so as to obtain the number specified in the “Constitution of Test Groups” table. Individual identification was done by writing numbers directly on the tails of the animals. Individual identification cards of different colors were attached to the housing boxes according to each dose. An animal room usage record sheet containing the test number, animal room usage period, principal investigator name, subinvestigator name, emergency contact information, etc. was attached to the animal room entrance. The test groups consisted of WT, vehicle, 25 mg/kg Compound 2, and 50 mg/kg Compound 2, respectively, which were administered orally once a day for a total of 21 days starting from 3 days after MIA administration.
Histopathological analysis of knee joint tissue was performed using the same model as that in Experimental Example 1. For histopathological analysis, Safranin 0 staining was performed, and two evaluators scored the severity of osteoarthritis according to the following evaluation criteria. As the analysis criteria, OARSI and total Mankin scores were analyzed. The OARSI analysis criteria were scored as follows: 0: normal cartilage surface; 1: cartilage surface is normal but cell death is found; 2: disruption of the cartilage surface and fibrosis of the surface layer; 3: splitting along the longitudinal axis of cartilage; 4: damage and infiltration to the middle part of cartilage; 5: exposure of stromal bone area; and 6: complete cartilage damage and formation of osteophytes. The total Mankin score analysis criteria were analyzed for four items: structure (0-6), cell (0-3), Safranin 0 (0-4), and tidemark (0-1). A higher score for each item indicates more damage to chondrocytes cells and structure.

[3] = test system: MIA-induced OA rat model; experiment: Pain suppression (nociceptive pain threshold, dynamic plantar aesthesiometer) in MIA-induced OA rat model; settings: FIG. 1
Experimental: All animals were allowed to acclimatize for one week after introduction to the laboratory environment. On the day of the start of the experiment, monosodium iodoacetate (MIA, Sigma, Cat. No. 12512) was dissolved in saline for injection at a concentration of 30 mg/mL, and 50 μL of the solution was administered once on the day of the start of the experiment. The animals were divided into groups as follows. The animals were randomly distributed so that the average of each group was distributed as evenly as possible according to the pain threshold evaluation values ranked, so as to obtain the number specified in the “Constitution of Test Groups” table. Individual identification was done by writing numbers directly on the tails of the animals. Individual identification cards of different colors were attached to the housing boxes according to each dose. […]
The nociceptive pain threshold (g) was measured using a dynamic plantar aesthesiometer (Ugo Basile, 37400, Comerio, Italy), a device in which the force applied to the animal's paw gradually increases over a certain period of time. […] The results for the nociceptive pain threshold were calculated as paw withdrawal latency (sec) and paw withdrawal threshold (g).

[4] = test system: IL-6; experiment: Immunohistochemical analysis of knee joint tissue in MIA-OA animal model: IL-6; settings: MIA-OA rat; immunohistochemistry; FIG. 5
Experimental: as §1, §2

[5] = test system: RIPK3; experiment: Immunohistochemical analysis of knee joint tissue in MIA-OA animal model: RIPK3; settings: MIA-OA rat; immunohistochemistry; FIG. 8
Experimental: as §1, §2

[6] = test system: MIA-induced OA rat model; experiment: Weight bearing (incapacitance meter) in MIA-induced OA rat model; settings: FIG. 2
Experimental: All animals were allowed to acclimatize for one week after introduction to the laboratory environment. On the day of the start of the experiment, monosodium iodoacetate (MIA, Sigma, Cat. No. 12512) was dissolved in saline for injection at a concentration of 30 mg/mL, and 50 μL of the solution was administered once on the day of the start of the experiment. The animals were divided into groups as follows. The animals were randomly distributed so that the average of each group was distributed as evenly as possible according to the pain threshold evaluation values ranked, so as to obtain the number specified in the “Constitution of Test Groups” table. Individual identification was done by writing numbers directly on the tails of the animals. […]
Weight bearing was measured using the same model as that in Experimental Example 1. […] The weight bearing of each hind paw was measured using an incapacitance meter (Model 600, IITC, USA), a device for measuring weight bearing. […]
When each animal was correctly positioned in the holder, the machine was operated, the measurement time was set to 5 seconds, and a total of two measurements were taken and averaged to determine the weight bearing (g) of each paw. […] The results of the weight-bearing measurement test were converted into weight bearing ratio using the following calculation formula and analyzed.

[7] = test system: MMP3; experiment: Immunohistochemical analysis of knee joint tissue in MIA-OA animal model: MMP3; settings: MIA-OA rat; immunohistochemistry; FIG. 7
Experimental: as §1, §2

[8] = oral once a day, 21 days, FIG. 4

With `CCOc1ccc(C2COc3c(ccc4c3CCC(C)(C)O4)C2)c(O)c1` (centres unmarked) [Compound 2] the “MCP-1 in knee joint tissue (Dab-positive area)” value [1] was “inhibited”, the “histopathology score efficacy compared with positive control celecoxib” value ([2]; OARSI and Mankin scores, FIG. 4) was “efficacy equivalent to that of celecoxib” and the “Safranin 0 staining of the cartilage tissue” value ([2]; oral once a day, 21 days, FIG. 3) was “improved”. The “Mankin score (severity of osteoarthritis)” value [2, 8] was “reduced”, the “ORASI score (severity of osteoarthritis)” value [2, 8] was “reduced” and the “pain caused by cartilage damage (nociceptive pain threshold)” value ([3]; 25 mg/kg and 50 mg/kg orally once a day for 21 days from 3 days after MIA) was “gradually reduced”. For the same compound, the “pain suppression efficacy compared with positive control celecoxib” value ([3]; oral once a day, 21 days) was “efficacy equivalent to that of the positive control, celecoxib”, the “IL-6 in knee joint tissue (Dab-positive area)” value [4] was “inhibited” and the “RIPK3 in knee joint tissue (Dab-positive area)” value [5] was “inhibited”. For the same compound, the “RIPK3 inhibition efficacy compared with positive control celecoxib” value [5] was “better efficacy than celecoxib”, the “weight bearing following cartilage damage” value ([6]; 25 mg/kg and 50 mg/kg orally once a day for 21 days) was “reduced” and the “weight bearing efficacy compared with positive control celecoxib” value ([6]; oral once a day, 21 days) was “efficacy equivalent to that of celecoxib”. The “MMP3 in knee joint tissue (Dab-positive area)” value [7] was “reduced” and the “MMP3 reduction efficacy compared with positive control celecoxib” value [7] was “better efficacy than celecoxib”.
